Assay results reported in patent publication US7217702B2, “Selective antagonists of A2A adenosine receptors” (Adenosine Therapeutics, LLC, priority 2004, dated 2007).

Key:
A2A adenosine receptor = A2A adenosine receptor (Homo sapiens, UniProt P29274); assay: Human Ki of the compound tables; type: binding; conditions: receptor subtype not given
A2BAR = biological target: T1, A2BAR (Homo sapiens, UniProt P29275); assay: Binding affinity of A2AAR ligands, radioligand displacement at A2BAR; conditions: for displacement of radioligand, A2BAR: 1 μM candidate ligand; for selectivity ratio vs. the A2AAR, A2BAR: number in parentheses
T1 sequence (P29275 1-332): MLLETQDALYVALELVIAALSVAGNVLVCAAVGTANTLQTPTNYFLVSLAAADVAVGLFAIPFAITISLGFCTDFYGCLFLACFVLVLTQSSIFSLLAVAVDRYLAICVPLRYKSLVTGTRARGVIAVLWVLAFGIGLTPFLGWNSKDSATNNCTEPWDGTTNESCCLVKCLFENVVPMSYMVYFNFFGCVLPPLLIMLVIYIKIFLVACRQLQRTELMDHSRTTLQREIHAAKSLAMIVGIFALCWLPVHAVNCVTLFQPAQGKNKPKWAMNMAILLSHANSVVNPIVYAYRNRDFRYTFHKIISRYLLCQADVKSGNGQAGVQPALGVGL

A2AAR = A2AAR (Homo sapiens, UniProt P29274); assay: Binding affinity of A2AAR ligands, radioligand displacement at A2AAR
Chain of A2AAR (P29274 whole entry): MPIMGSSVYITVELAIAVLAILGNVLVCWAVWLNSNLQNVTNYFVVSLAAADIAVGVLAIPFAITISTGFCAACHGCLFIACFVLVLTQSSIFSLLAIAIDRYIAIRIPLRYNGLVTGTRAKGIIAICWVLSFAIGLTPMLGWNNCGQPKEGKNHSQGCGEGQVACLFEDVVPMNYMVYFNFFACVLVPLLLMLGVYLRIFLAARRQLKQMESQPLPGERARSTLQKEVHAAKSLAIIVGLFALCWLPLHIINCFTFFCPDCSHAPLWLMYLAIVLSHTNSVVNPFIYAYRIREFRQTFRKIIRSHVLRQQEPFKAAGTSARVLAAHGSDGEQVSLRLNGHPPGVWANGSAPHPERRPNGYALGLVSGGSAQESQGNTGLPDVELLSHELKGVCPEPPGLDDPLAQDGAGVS

A3AR = biological target: T2, A3AR (Homo sapiens, UniProt P0DMS8); assay: Binding affinity of A2AAR ligands, radioligand displacement at A3AR; conditions: for displacement of radioligand, A3AR: 1 μM candidate ligand; for selectivity ratio vs. the A2AAR, A3AR: number in parentheses
T2 sequence (P0DMS8 1-318): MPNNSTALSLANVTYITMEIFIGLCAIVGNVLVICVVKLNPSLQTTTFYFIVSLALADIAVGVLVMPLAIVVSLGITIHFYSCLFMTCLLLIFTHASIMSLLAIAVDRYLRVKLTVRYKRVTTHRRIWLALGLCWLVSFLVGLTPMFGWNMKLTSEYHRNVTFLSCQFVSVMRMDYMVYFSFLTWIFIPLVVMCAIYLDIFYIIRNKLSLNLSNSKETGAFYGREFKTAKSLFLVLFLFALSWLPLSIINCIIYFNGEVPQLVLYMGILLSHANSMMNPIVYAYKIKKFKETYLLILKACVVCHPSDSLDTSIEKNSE

A1AR = biological target: T3, A1AR (Homo sapiens, UniProt P30542); assay: Binding affinity of A2AAR ligands, radioligand displacement at A1AR; conditions: for selectivity ratio vs. the A2AAR, A1AR: number in parentheses
T3 sequence (P30542 1-326): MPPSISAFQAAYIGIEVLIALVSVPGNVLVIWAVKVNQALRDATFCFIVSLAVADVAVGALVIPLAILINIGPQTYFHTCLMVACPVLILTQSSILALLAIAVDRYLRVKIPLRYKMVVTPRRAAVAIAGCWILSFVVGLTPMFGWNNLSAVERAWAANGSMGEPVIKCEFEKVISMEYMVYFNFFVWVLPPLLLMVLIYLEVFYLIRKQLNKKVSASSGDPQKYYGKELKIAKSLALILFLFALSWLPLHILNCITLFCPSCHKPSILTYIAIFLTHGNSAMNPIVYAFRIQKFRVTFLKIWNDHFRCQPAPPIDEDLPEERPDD

[1] = cited from earlier work
[2] = in vivo; cited from earlier work
[3] = system: normal and dopamine-depleted mice; assay: Dose response of motor activity in normal and MPTP dopamine-depleted mice; type: in vivo, mouse; conditions: i.p.
Experimental: In the set of experiments, we perform a dose response study of ATL-2 in stimulating motor activity in normal mice, and then we further extend this to dopamine-depleted mice. Adult male mice are habituated for 120 minutes and treated (i.p.) with saline or varying doses of compound, and their locomotor activity recorded for 120 minutes.
In a second set of experiments, we utilize the MPTP treatment paradigm to create animal model of PD by severely depleting dopamine in mice. We use a single MPTP treatment paradigm (40 mg/kg) which has been reproducibly reducing dopamine to 30–40% of normal dopamine contents in striatum in our previous studies.^35,74 Adult male mice (˜[…]) are treated with single dose of MPTP (40 mg/kg). Thirty minutes after the MPTP treatment, mice are injected (i.p.) with vehicle or compounds of the invention at the same doses discussed above. Their motor activity is recorded for 180 minutes.

[4] = system: unilateral 6-OHDA-lesioned mice; assay: L-dopa-induced locomotor sensitization in unilateral 6-OHDA-lesioned mice; type: in vivo, mouse; conditions: 3 or 10 mg/kg i.p. before daily L-dopa
Experimental: The ability of ATL-2 to modify the development of L-dopa-induced locomotor sensitization in hemiparkinsonian mice are tested. C57BL/6 mice (from the Jackson's lab, Bar Harbor, […].) are lesioned with 6-OHDA by unilateral intrastriatal using a standard lesioning protocol. Seven days after the 6-OHDA (or MPP^+) treatment, mice are injected with L-dopa (2.0 mg/kg, daily) for 14 days. Five min prior to each L-dopa treatment, the mice receive intraperitoneal pretreatment with: (1) vehicle, (2) ATL-2 (3 mg/kg) or (3) ATL-2 (10 mg/kg). […] Rotational responses to L-dopa are recorded on the days 1, 3, 5, 7, 10 and 15. Following the behavioral measurement, mice may be sacrificed and their brains sectioned through striatum and substantia nigra. Striatal enkephalin mRNA levels are determined by in situ hybridization histochemistry. Similarly, DAT (^3H-mazindol) binding is measured by receptor autoradiography to ensure successful and equivalent lesions among different experimental groups.

[5] = system: A2A receptor KO and WT mice; assay: Motor stimulant effect in A2A receptor KO mice and WT littermates; type: in vivo, mouse; conditions: 15 mg/kg, FIG. 2
Experimental: We validated that ATL-2 acts on the A2A receptor to stimulate motor activity by using A2AR KO mice (in both mixed (129sv X C57BL/6) as well as congenic (C57BL/6 genetic background) developed over the last several years. We evaluated the motor stimulant effect of ATL-2 in A2A receptor KO and their WT littermates. WT and A2A KO mice (n=4) were habituated for 60 minutes and treated with ATL-2 (15 mg/kg) and recorded for motor activity for 120 minutes.

C57BL/6 mice = assay: Motor stimulation in normal mice, locomotor activity cage system; type: in vivo, mouse
Experimental: The ability of compounds to stimulate motor activity in normal mice was measured using a simple, computer-assisted locomotor activity cage system. C57BL/6 mice (n═6–8 purchased from the Jackson's lab) were habituated for the testing environment for 120 minute prior to drug treatment. The test compounds were dissolved in vehicle (10% DMSO, 10% castrol oil EL-620 and 80% saline). The drug was administrated intraperitoneally at a dose of 15 mg/kg, and locomotor activity was recorded for 2 hours before and after drug administration.

dopamine-depleted mice = assay: Synergy with L-dopa on locomotor activity in MPTP dopamine-depleted mice; type: in vivo, mouse; conditions: MPTP-treated mice
Experimental: We further tested the ability of these compounds to synergistically enhance motor function in conjunction with L-dopa, the standard therapy. Mice are injected (i.p.) with MPTP at a dose (1–2.5 mg/kg) that markedly decreases striatal dopamine levels. […] Locomotor behavior is monitored for 120 min before and after the treatment.

PD patients = conditions: 20–80 mg/day; cited from earlier work
rats = conditions: cited from earlier work
[6] = normal C57BL/6 mice, 15 mg/kg intraperitoneally, FIG. 1

Chain of A2A adenosine receptor (P29274 whole entry): as the sequence (P29274 whole entry) above

Row | Ki (A2A adenosine receptor) | Ki (A2AAR) | Ki (A1AR) | selectivity ratio vs. the A2AAR, A1AR (A1AR) | Ki (A2BAR) | selectivity ratio vs. the A2AAR, A2BAR (A2BAR) | Ki (A3AR) | selectivity ratio vs. the A2AAR, A3AR (A3AR) | SMILES | also measured
1 | < 500 nM | 137 nM | 172 nM | 1.3 | – | – | – | – | CCC(CC)Nc1nc(C#C[C@]2(O)CCC[C@@H](C)C2)nc2c1ncn2C [Compound 11, 2-{2-[1(S)-Hydroxy-3(R)-methyl-1-cyclohexyl]ethyn-1-yl}-9-methyl-N6-(3-pentyl)adenine] | displacement of radioligand, A2BAR (A2BAR): 20%; displacement of radioligand, A3AR (A3AR): 30%
2 | < 100 nM | 5 nM | 11 nM | 2 | 147 nM | 29 | 188 nM | 38 | C#CCn1cnc2c(NC(CC)CC)nc(C#C[C@]3(O)CCC[C@@H](C)C3)nc21 [Compound 17, 2-{2-[1(S)-Hydroxy-3(R)-methyl-1-cyclohexyl]ethyn-1-yl}-N6-(3-pentyl)-9-(propargyl)adenine] | –
3 | – | – | – | – | – | – | – | – | Nc1nc2c(cnn2CCc2ccccc2)c2nc(-c3ccco3)nn12 [SCH58261] | solubility [1]: very poorly soluble
4 | < 100 nM | 10 nM | 368 nM | 37 | 357 nM | 36 | 633 nM | 63 | C[C@@H]1CCC[C@@](O)(C#Cc2nc(N)c3ncn(C4CCCC4)c3n2)C1 [Compound 3, 9-Cyclopentyl-2-{2-[1(S)-hydroxy-3(R)-methyl-1-cyclohexyl]ethyn-1-yl}adenine] | –
5 | < 100 nM | 1.6 nM | 25 nM | 16 | 155 nM | 97 | > 650 nM | > 400 | C#CCn1cnc2c(N)nc(C#CC3(O)C4CC5CC(C4)CC3C5)nc21 (stereo not drawn) [Compound 51] | –
6 | – | – | – | – | – | – | – | – | Nc1nc(NCCc2ccc(O)cc2)nc2nc(-c3ccco3)nn12 [ZM241385] | bioavailability [2]: poor bioavailability
7 | < 100 nM | 0.95 nM | 4.6 nM | 5 | 50 nM | – | 599 nM | 630 | C#CCn1cnc2c(N)nc(C#C[C@]3(O)CCC[C@@H](C)C3)nc21 [Compound 2, 2-{2-[1(S)-Hydroxy-3(R)-methyl-1-cyclohexyl]ethyn-1-yl}-9-propargyladenine] | motor function, dose dependence [3]: Enhances Motor Function in a Dose-dependent Manner; development of L-dopa-induced locomotor sensitization [4]: delays or prevent the development of locomotor sensitization; motor stimulation in A2A receptor KO mice ([5]; A2A receptor KO mice): absent; motor activity in WT mice ([5]; WT littermates): produced motor activity; motor stimulant effect compared with other A2AR antagonists such as SCH58261 and KW6002 (C57BL/6 mice; from previous experience with other A2AR antagonists): comparable or stronger; duration of motor stimulation (C57BL/6 mice; [6]): about 60 minutes; motor stimulation (locomotor activity) (C57BL/6 mice; [6]): strong motor stimulation; time to peak of motor stimulation (C57BL/6 mice; [6]): ≤ 20 min; shift of the dose-response curve with L-dopa (dopamine-depleted mice): left-shift; effect with L-dopa in stimulating locomotor activity (dopamine-depleted mice; L-dopa 25 mg/kg + ATL-2 0.3-10 mg/kg): synergistic effect
8 | < 100 nM | 12 nM | > 325 nM | > 27 | – | – | – | – | Nc1nc(C#CC2(O)C3CC4CC(C3)CC2C4)nc2c1ncn2C1CCCC1 (stereo not drawn) [Compound 50] | displacement of radioligand, A2BAR (A2BAR): 40%; displacement of radioligand, A3AR (A3AR): 40%
9 | – | – | – | – | – | – | – | – | CCn1c(=O)c2c(nc(/C=C/c3ccc(OC)c(OC)c3)n2C)n(CC)c1=O [KW6002] | tolerability in clinical trial (PD patients): well tolerated; toxicity (rats): long-term toxicity
